Results taken from patent US4081474A, “Sulfonyloxy bromoacetanilides and their utility as biocides” (Stauffer Chemical Company, priority 1976, dated 1978).
In brackets after ≈: the same amount, converted by molar mass. Where two headings read alike, the source gives them in different places. One block for each molecule: values may come before it.

What was measured:
Type in all cases: cell-based
[1] = tested on: Escherichia coli; experiment: Soap Plug Test; details: 1% in sodium stearate soap plug, 37° C., 17 hours
[2] = tested on: Staphylococcus aureus; experiment: Soap Plug Test; details: 1% in sodium stearate soap plug, 37° C., 17 hours
[3] = tested on: Aspergillus niger; experiment: In Vitro Vial Test (malt broth); details: 168 h; for MIC: read-out: Lowest Effective Concentration
[4] = tested on: Penicillium italicum; experiment: In Vitro Vial Test (malt broth); details: 168 h; for MIC: read-out: Lowest Effective Concentration; for minimal effective concentration: read-out: Lowest Effective Concentration (partial control)
[5] = tested on: Escherichia coli; experiment: In Vitro Vial Test (nutrient broth); details: 168 h; for MIC: read-out: Lowest Effective Concentration; for minimal effective concentration: read-out: Lowest Effective Concentration (partial control)
[6] = tested on: Staphylococcus aureus; experiment: In Vitro Vial Test (nutrient broth); details: 168 h; for MIC: read-out: Lowest Effective Concentration
[7] = tested on: Aspergillus niger; experiment: Microbiocide Testing Procedure Using Agar; details: potato dextrose agar, 30° C., read-out: Minimum Inhibitory Concentration
Experimental: (§1) This test measures the bactericidal and fungicidal properties of a compound when in contact with a growing bacterium or fungi in an artificial medium. […] The treated agar mixture is then allowed to come to room temperature and solidify. Cells of the particular organism are then streaked on the surface of the solidified agar and are then incubated for such lengths of time that untreated samples containing no toxicant show luxurious growth typical of the particular organism. This time varies from 24 hours to one week, depending on the particular organism. The fungi are incubated at 30° C. and the bacteria are incubated at 37° C. Nutrient agar is used as the medium in this test for the bacteria. Potato dextrose agar is used as the medium for the fungi.

[8] = tested on: Escherichia coli; experiment: Microbiocide Testing Procedure Using Agar; details: nutrient agar, 37° C., read-out: Minimum Inhibitory Concentration
Experimental: as §1

[9] = tested on: Penicillium italicum; experiment: Microbiocide Testing Procedure Using Agar; details: potato dextrose agar, 30° C.
Experimental: as §1

[10] = tested on: Staphylococcus aureus; experiment: Microbiocide Testing Procedure Using Agar; details: nutrient agar, 37° C., read-out: Minimum Inhibitory Concentration
Experimental: as §1

[11] = tested on: Escherichia coli; experiment: Detergent Formulation Test; details: washed cotton cloth, compounds at 0.2% in Tide detergent, 37° C.
[12] = tested on: Staphylococcus aureus; experiment: Detergent Formulation Test; details: washed cotton cloth, compounds at 0.2% in Tide detergent, 37° C.
[13] = tested on: Brevibacterium ammoniagenes; experiment: Detergent Formulation Test; details: washed cotton cloth, compounds at 0.2% in Tide detergent, 37° C.
[14] = tested on: Trichophyton mentagrophytes; experiment: Detergent Formulation Test; details: washed cotton cloth, compounds at 0.2% in Tide detergent, 37° C.
[15] = malt broth, one week, value printed in: partial control at this concentration
[16] = nutrient broth, one week, value printed in: partial control at this concentration

SMILES: O=C(Nc1ccc(Cl)cc1)Nc1ccc(Cl)c(Cl)c1 [TCC, 3,4,4-trichlorocarbanilide, reference compound]
- Zone of Biological Inhibition (radius) [1]: 0 mm
- Zone of Biological Inhibition (radius) [2]: 5 mm

- MIC ([3]; malt broth, one week): > 50 µg/mL
- MIC ([4]; malt broth, one week): 50 µg/mL (≈ 135 µM)
- MIC ([5]; nutrient broth, one week): > 50 µg/mL
- MIC ([6]; nutrient broth, one week): 50 µg/mL (≈ 135 µM)
SMILES: O=C(CBr)Nc1cccc(OS(=O)(=O)c2ccccc2)c1 [Compound 8, m-Phenylsulfonyloxy bromoacetanilide]
- MIC [7]: > 50 µg/mL
- MIC [8]: > 50 µg/mL
- MIC ([9]; read-out: Minimum Inhibitory Concentration): 50 µg/mL (≈ 135 µM)
- MIC [10]: 10 µg/mL (≈ 27 µM)

- MIC ([3]; malt broth, one week): 100 µg/mL (≈ 435 µM)
- MIC ([6]; nutrient broth, one week): 10 µg/mL (≈ 43.5 µM)
SMILES: O=C(CBr)Nc1cccc(O)c1 [Compound 1, 3'-hydroxybromoacetanilide]
- minimal effective concentration [4, 15]: 25 µg/mL
- minimal effective concentration [5, 16]: 10 µg/mL
- Zone of Biological Inhibition (radius) [1]: 2 mm
- Zone of Biological Inhibition (radius) [2]: 12-15 mm
- Zone of Biological Inhibition (radius) [11]: 2 mm
- Zone of Biological Inhibition (radius) [12]: 3 mm
- Zone of Biological Inhibition (radius) [13]: 0 mm
- Zone of Biological Inhibition (radius) [14]: 1 mm

- MIC ([3]; malt broth, one week): 50 µg/mL (≈ 217 µM)
- MIC ([4]; malt broth, one week): 50 µg/mL (≈ 217 µM)
- MIC ([5]; nutrient broth, one week): 25 µg/mL (≈ 109 µM)
- MIC ([6]; nutrient broth, one week): 25 µg/mL (≈ 109 µM)
SMILES: O=C(CBr)Nc1ccc(O)cc1 [Compound 6]

SMILES: CC(C)NC(=O)Oc1cccc(NC(=O)CCl)c1 [B, reference compound]
- MIC [3]: > 500 µg/mL
- MIC [4]: > 500 µg/mL
- MIC [5]: > 500 µg/mL
- MIC [6]: > 500 µg/mL

- MIC ([3]; malt broth, one week): > 50 µg/mL
- MIC ([4]; malt broth, one week): 50 µg/mL (≈ 143 µM)
- MIC ([5]; nutrient broth, one week): > 50 µg/mL
- MIC ([6]; nutrient broth, one week): 50 µg/mL (≈ 143 µM)
SMILES: CC(C)CS(=O)(=O)Oc1cccc(NC(=O)CBr)c1 [Compound 7, m-Isobutylsulfonyloxy bromoacetanilide]
- MIC [7]: > 50 µg/mL
- MIC [8]: > 50 µg/mL
- MIC ([9]; value printed in, not explained in Table III (Table II: partial control), read-out: Minimum Inhibitory Concentration (value in parentheses)): 10 µg/mL (≈ 28.6 µM)
- MIC [10]: 50 µg/mL (≈ 143 µM)

- MIC ([3]; malt broth, one week): > 500 µg/mL
SMILES: O=C(CCl)Nc1cccc(O)c1 [A, reference compound]
- minimal effective concentration [4, 15]: 500 µg/mL
- minimal effective concentration [5, 16]: 250 µg/mL
- minimal effective concentration ([6]; nutrient broth, one week, value printed in: partial control at this concentration, read-out: Lowest Effective Concentration (partial control)): 250 µg/mL

SMILES: C=CCNC(=O)Oc1cccc(NC(=O)CBr)c1 [Compound 4]
- MIC [3]: > 50 µg/mL
- MIC [4]: 50 µg/mL (≈ 160 µM)
- MIC [5]: > 50 µg/mL
- MIC [6]: 50 µg/mL (≈ 160 µM)

SMILES: CC(C)NC(=O)Oc1cccc(NC(=O)CBr)c1 [Compound 3]
- minimal effective concentration ([3]; read-out: Lowest Effective Concentration (partial control)): 100 µg/mL
- minimal effective concentration [4]: 25 µg/mL
- MIC [5]: 25 µg/mL (≈ 79.3 µM)
- MIC [6]: 10 µg/mL (≈ 31.7 µM)
- Zone of Biological Inhibition (radius) [1]: 2 mm
- Zone of Biological Inhibition (radius) [2]: 6-8 mm

SMILES: O=C(CBr)Nc1cccc(OC(=O)NC2CCCCC2)c1 [Compound 5]
- MIC [3]: > 50 µg/mL
- minimal effective concentration [4]: 50 µg/mL
- minimal effective concentration [5]: 50 µg/mL
- MIC [6]: 50 µg/mL (≈ 141 µM)

SMILES: CNC(=O)Oc1cccc(NC(=O)CBr)c1 [Compound 2, 3'-N-methyl carbamoyloxy bromoacetanilide]
- MIC [3]: > 50 µg/mL
- MIC [4]: > 50 µg/mL
- MIC [5]: 50 µg/mL (≈ 174 µM)
- MIC [6]: 50 µg/mL (≈ 174 µM)
